Results reported in US11026917B2, “Antioxidative stress compositions, methods of preparing and uses thereof” (priority 2016, dated 2021).

Assay: Concentrations of chemopreventive compounds and metabolites in dog serum by LC-MS/MS
Type: in vivo
Method: Serum was isolated from whole blood obtained during the two phases of the trial and analysed by LC-MS/MS.
Whole blood (6 ml) was collected from each canine subject at the end of the first and second phases of the study. Blood was obtained by venipuncture from either the cephalic or jugular vein (typically with an 18-20 gauge needle attached to a 10 ml syringe). Manual restraint and aseptic techniques were used. The blood from each dog was placed in labelled collection tubes (2 ml in lavender EDTA collection tubes, 1 ml in green lithium heparin collection tubes, and 3 ml in red silicone coated tubes). The lavender tubes were inverted and used to run Complete Blood Counts (CBC) and for isolation of lymphocytes, the green tubes were inverted and used to run Comprehensive Chemistry Blood Profiles (CCBP), and the blood within the red tubes were allowed to clot, and then centrifuged for 15 min at 3400 rpm to obtain serum. The serum was frozen prior to analysis by LC-MS/MS. The CBC and CCBPs were run on Abaxis™ VetScan machines, particularly the VS2 and HMS.
Liquid-liquid extraction was used to prepare dog serum for mass spectrometric analysis. Briefly, 300 μl of serum was mixed with 900 μl of ice-cold acetonitrile. Each sample was vortex mixed for 20 sec and then centrifuged for 10 min at 13,000×g. The supernatant was removed and evaporated to dryness under a stream of nitrogen, and each extract was reconstituted in 100 μl of acetonitrile/water (20:80, v/v) prior to analysis using LC-MS/MS.
Both instruments were equipped with negative ion electrospray and interfaced to Shimadzu HPLC systems (Prominence Ark. or Nexera, respectively). A Waters (Milford, Mass.) XBridge C18 column (2.1×100 mm; 2.5 μm) was used for chromatographic separations. The solvent system consisted of a 5-min linear gradient from 10% to 90% acetonitrile in water at a flow rate of 400 μl/min. The injection volume was 10 μl.
For quantitative analysis, selected reaction monitoring (SRM) was used with collision-induced dissociation and argon as the collision gas. Deprotonated molecules of each analyte were used as precursor ions, and the SRM transitions of the two most abundant product ions were selected as quantifiers and qualifiers, respectively. In some cases, only one SRM transition (quantifier) was used due to the low abundances of other fragment ions. […] The SRM transitions for genistein were m/z 269 to 89 and m/z 269 to 187, and the SRM transitions for genistein glucuronide and genistein sulfate were m/z 445 to 269 and m/z 349 to 269, respectively. Quercetin was measured using the SRM transitions of m/z 301 to 151 and m/z 301 to 179, and its glucuronide and sulfate metabolites were monitored using the transitions of m/z 477 to 301 and m/z 381 to 301, respectively. Synthetic isopentyl naringenin was used as an internal standard (SRM transition m/z 341 to 119).

Question: For `COc1cc(/C=C/C(=O)CC(=O)/C=C/c2ccc(O[C@@H]3O[C@H](C(=O)O)[C@@H](O)[C@H](O)[C@H]3O)c(OC)c2)ccc1O` [Curcumin glucuronide], which “detection in dog serum (in words)” value (dog, in vivo) is on record?
Answer: detected at low levels in serum of two dogs

Question: Which “detection in dog serum (in words)” value (dog, in vivo) does the source give for `O=c1oc2c(O)c(O)cc3c(=O)oc4c(O)c(O)cc1c4c23` [Ellagic acid] here?
Answer: No ellagic acid or curcumin was detected in serum

Question: For `O=c1c(-c2ccc(O)cc2)coc2cc(O)cc(O)c12` [Genistein], which “detection in dog serum (in words)” value (second phase, after 3 weeks of two biscuits/day) is on record?
Answer: no unconjugated genistein was detected

Question: For `O=c1c(O)c(-c2ccc(O)c(O)c2)oc2cc(O)cc(O)c12` [Quercetin], which “Concentration in serum, Second phase” value (dog, in vivo, 3 weeks) is on record?
Answer: 2 ± 1 ng/mL

Question: Which concentration at 3 weeks (dog, in vivo) does the source give for `Oc1ccc(C=Cc2cc(O)cc(O)c2)cc1` [Resveratrol] here?
Answer: 19.3 ± 11 ng/mL

Question: For `O=S(=O)(O)Oc1cc(O)cc(/C=C\c2ccc(O)cc2)c1` [cis-Resveratrol-3-sulfate], which concentration at 3 weeks (dog, in vivo) is on record?
Answer: 13.6 ± 5.27 ng/mL

Question: With `O=S(=O)(O)Oc1cc(O)cc(C=Cc2ccc(O)cc2)c1` [resveratrol-3-sulfate] as the molecule, how does the “detection in dog serum (in words)” value (dog, in vivo) read?
Answer: most abundant form of resveratrol in dog serum

Question: For `O=S(=O)(O)Oc1ccc(/C=C/c2cc(O)cc(O)c2)cc1` [trans-Resveratrol-4′-sulfate], which concentration at 3 weeks (dog, in vivo) is on record?
Answer: 44.4 ± 12.2 ng/mL
